A short description of series [1]: Solubility in water / aqueous media.
For series [2], the target named is T1, ALDH-I (Homo sapiens, UniProt P05091).
T1 sequence (P05091 18-517): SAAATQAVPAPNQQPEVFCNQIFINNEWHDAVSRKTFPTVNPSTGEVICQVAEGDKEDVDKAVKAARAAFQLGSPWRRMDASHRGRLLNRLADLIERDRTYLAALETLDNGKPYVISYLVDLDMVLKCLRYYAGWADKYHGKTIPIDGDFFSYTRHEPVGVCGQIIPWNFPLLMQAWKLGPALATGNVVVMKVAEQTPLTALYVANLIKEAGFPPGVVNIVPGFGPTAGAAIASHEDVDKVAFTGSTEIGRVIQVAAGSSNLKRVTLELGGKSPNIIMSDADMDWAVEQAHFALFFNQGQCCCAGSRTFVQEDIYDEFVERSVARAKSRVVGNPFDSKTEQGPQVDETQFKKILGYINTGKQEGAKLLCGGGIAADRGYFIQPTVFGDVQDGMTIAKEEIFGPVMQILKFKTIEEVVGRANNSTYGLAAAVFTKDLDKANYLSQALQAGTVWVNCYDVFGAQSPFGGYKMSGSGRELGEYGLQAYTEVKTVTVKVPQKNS
Put plainly: Reversibility of ALDH-I inhibition (preincubation, then dilution). On the set-up: A liver sample (50 g wet weight) with the usual Caucasian ALDH phenotype (both ALDH-I and ALDH-II present); from tissue; host or cells: human liver (autopsy), purified by CM-52, AMP-agarose and DEAE HPLC. It is filed as biochemical.

Series [3] is described as follows: Plasma drug concentration versus time after a single 10 mg dose. The format is in vivo. Conditions: golden hamster. An excerpt:
Five hours later the plasma concentrations of both inhibitors were still above […], far above their competitive inhibition constants for ALDH-I.

Series [4] has as its target T1, ALDH-I. Kind of series: Inhibition kinetics of ALDH-I, initial velocity method, formaldehyde as substrate. The settings on record: from Ki values of Table II. As for the experimental part:
The kinetic data were analyzed by standard graphical methods.

In another series the test system is mice. The settings on record: subcutaneous in propylene glycol; cited from earlier work.
Another series concerns rats. Conditions: subcutaneous in propylene glycol; cited from earlier work.
Series [5] relates to golden hamsters. Put plainly: Effect of daidzin on free choice ethanol intake in golden hamsters. Conditions: 10 mg/day. It is filed as in vivo, golden hamster. An excerpt: Hamsters were chosen as described in Example 4 based on previous reports that they display high ethanol intake and preference in comparison with several other mammalian species, and that this was correlated with differences in ethanol metabolism. Kulkosky and Cornell, 1979, supra.
The animals used in these experiments are adult male golden hamsters (outbred, Lakeview Lak: LVG[SYR]), purchased from Charles River Laboratories, Wilmington, Mass. 01887. Upon arrival, hamsters are housed (4 per cage) with ad libitum access to food and tap water in a room maintained at 23° C. on a 12/12 light/dark cycle (light on 0600-1800 hr.) for 1 week. Following this acclimation period, each hamster is transferred to an individual stainless steel metabolic cage (26×18×17.5 cm) with a wire mesh floor for the remainder of the experiment. Each cage is equipped with a stainless steel food hopper located on the right side of the front wall which was kept filled with food. Two 50 ml drinking bottles fitted with stainless steel sipper tubes are placed on the left side of the front wall. Under the sipper tubes are funnels which collect and direct spillage to tubes placed outside of the cages. Fluids are provided mainly during the dark cycle (1800-0800 hr.) and fluid intake is measured in the morning at the same time each day, for example, at 0800 hr. During this baseline period, for example, 8 days, two drinking solutions are provided for each animal. One is tap water; the other is a 30% v/v solution of ethanol (100% USP). The position of the two drinking bottles on each cage is alternated daily to prevent the development of positional preference.
In other experiments, subcutaneous administration is preferably omitted, and each hamster receives only daily oral administration by feeding as described herein. […] This decline in alcohol intake was accompanied by a concomitant increase in water intake.

Series [6] deals with golden hamsters. Kind of series: Dose effect on free choice ethanol intake in golden hamsters, i.p. The format is in vivo, golden hamster. Conditions: i.p. An excerpt:
It is common practice in quantitative drug studies with rodents to use intraperitoneal (i.p.) administration to deliver drug doses accurately (Goodman and Gilman, 1975, The Pharmacological Basis of Therapeutics, 5th ed., Macmillan, N.Y., p. 8). In particular, this method avoids variability introduced by technical difficulties of oral administration via feeding (full versus empty stomach, etc.), variations in drug transport in the gastrointestinal tract (variations in intestinal fauna and flora, individual variations in absorption rate expected of outbred animals, etc.) and other factors. […] As a control 1 ml of sterile saline was injected i.p. daily during the baseline period (typically 7-9 days) that establishes drinking preference without the drug. Saline injection i.p. had no effect on the drinking behavior of golden hamsters. Ethanol was provided as a 20% solution. Hamsters could be used more than once (but were not used more than three times) in a cycle of baseline saline injections followed by drug injections, each cycle with the drug at a different dose.
The response to daidzin treatment was computed as:
% Response=(Vo -Vd)×100/Vo

In a further series the test system is ADH isozymes. Kind of series: Inhibition of ADH. It is filed as biochemical, human.

This is an account of results in US6255497A, “Method for the inhibition of ALDH-I useful in the treatment of alcohol dependence or alcohol abuse” (priority 1998, dated 2001).

In brackets after ≈: the same amount, converted by molar mass.

For orientation: solubility means how much of the substance goes into solution per volume. For `O=c1c(-c2ccc(O)cc2)coc2cc(O[C@@H]3O[C@H](CO)[C@@H](O)[C@H](O)[C@H]3O)ccc12` [Daidzin, 7-glucoside of daidzein], the “solubility in polyethylene glycol 400” value in series [1] (PEG 400) was “highly soluble”. The solubility in glycerol result in [1] (glycerol) is “highly soluble”. Moreover, the “reversibility of ALDH-I inhibition” value on ALDH-I [2] was “reversible”. For the same compound, at ALDH-I [2] (read-out: final inhibition after 100-fold dilution), the inhibition at 0.001 µM was found to be 2%. The inhibition at 0.1 µM on ALDH-I [2] (read-out: inhibition after preincubation with daidzin) is 70%. The “time to maximal plasma concentration after injection” value in [3] (i.p.) is “within about an hour after injection”. The Cmax in [3] (plasma, ip, read-out: maximal plasma concentration) came to 6 µM. Further, the “more effective inhibition of human ALDH-I than of human ALDH-II” value at ALDH-I [4] came to 500 fold. In addition, the spasmolytic effect result in the series with mice is recorded as “no spasmolytic effect”. Moreover, the solubility was approximately 2000 µM (≈ 833 µg/mL) in “physchem” (10% aqueous polyvinylpyrrolidone 40, organic solvent or mixture); 4500 µM (≈ 1870 µg/mL) in the series “physchem” (20% peg 400 in water, organic solvent or mixture); 9400 µM (≈ 3910 µg/mL) in “physchem” (20% peg/water, beta-cyclodextrin, organic solvent or mixture); approximately 2000 µM (≈ 833 µg/mL) in the series “physchem” (saturated digitonin solution); 200 µM (≈ 83.3 µg/mL) in the series “physchem” (water). Further, in the series on rats, the “antifebrile (hypothermic) effect” value is recorded as “no antifebrile (hypothermic) effect”. Further, the “effect apparent after the first dose, hamster Number 9” value in the series with golden hamsters [5] was “fourth day after the first dose”. Further, the “start of decline of alcohol intake after the first dose, hamster Number 6” value in the series on golden hamsters [5] is on record as 2 days. Besides, in the series with golden hamsters [5] (hamster Number 6), the “total fluid intake during daidzin administration” value is on record as “slightly decreased”. Further, the “total water intake (water bottle plus water in ethanol mixture)” value in the series with golden hamsters [5] (hamster Number 6) was “stayed nearly constant”. Further, the “suppression of alcohol intake at 5 mg/day” value in the series on golden hamsters [6] (20% ethanol, 5 mg/day) was determined as 20%. In the series with golden hamsters [6] (20% ethanol, 10 mg/day), the “suppression of alcohol intake at 10 mg/day” value stood at 50%. Moreover, in the series on golden hamsters [6] (20% ethanol, 30 mg/day), the “suppression of alcohol intake at 30 mg/day” value came to 80%. Moreover, in the series on golden hamsters [6] (golden hamsters), the “EC50 or half-maximal response, suppression of alcohol intake” value is reported as 10 mg/day. Further, the ADH inhibition entry with ADH isozymes is listed as “inhibits the second but not the first step in human ethanol metabolism”.
